Source: article PMC4958397, “Synthesis, antibacterial and antiproliferative potential of some new 1-pyridinecarbonyl-4-substituted thiosemicarbazide derivatives” (Medicinal Chemistry Research, 2016)
In brackets after ≈: the same amount, converted by molar mass. Where two headings read alike, the source gives them in different places.

What was measured:
Type in all cases: cell-based
Cytotoxicity MTT assay = conditions: human, BJ cells (normal human skin fibroblasts), read-out: CC50 (concentration required for a 50 % reduction of cell viability)
Description: (§1) Normal human skin fibroblasts (BJ), human hepatocellular carcinoma (HepG2) and human breast adenocarcinoma (MCF-7) were obtained from American Type Culture Collection (ATCC, England, UK). The cells were cultured in Eagle’s minimum essential medium (EMEM, ATCC) supplemented with 10 % fetal bovine serum (FBS, PAA Laboratories), 100 U/mL penicillin and 100 μg/mL streptomycin (Sigma-Aldrich). In the case of the MCF-7 cell line, the culture medium was additionally supplemented with 0.01 μg/mL of human recombinant insulin (Sigma-Aldrich). The cells were grown in 75-cm^2 flasks and maintained at 37 °C in a humidified atmosphere of 5 % CO2 and 95 % air.
In order to determine the cytotoxicity, BJ cells were seeded in flat-bottom 96-well plates in 100 μL of a complete growth medium at a concentration of 1.7 × 10^4 cells/well and incubated for 24 h at 37 °C in a humidified atmosphere of 5 % CO2. Immediately before drug treatment, the synthesized compounds (1, 2, 4, 5, 6, 7, 10) were dissolved in dimethyl sulfoxide (DMSO, Sigma-Aldrich) and then diluted in cell culture medium supplemented with 2 % FBS. […] After incubation, the growth medium was replaced with 100 μL of the appropriate serial dilutions of the investigated compounds. Untreated cells were used as negative controls, and different concentrations of DMSO were used as the solvent control. The cell cultures were incubated at 37 °C for 24 h. The cytotoxicity was estimated using the 3-(4,5-dimethylthiazol-2-yl)-2,5-diphenyltetrazolium bromide (MTT) assay as described by Mosmann with some modifications (Mosmann, [1983]). Briefly, the cells were incubated for 3 h with 25 μL of MTT solution ([…] in PBS buffer) per well. The MTT assay is a rapid colorimetric method based on the conversion of mitochondrial succinate dehydrogenase from yellow, soluble tetrazolium salt to blue formazan crystals to determine the number of viable cells. In order to dissolve formazan crystals in live cells, 100 μL of SDS-HCl solution (10 % SDS in 0.01 N HCl) was added per well. After overnight incubation, absorbance was measured at 570 nm using microplate reader (BioTek ELx50). The MTT assay was repeated in three independent experiments performed in octuplicates. The half-maximal cytotoxic concentration (CC50) was defined as the compound concentration (μg/mL) required to reduce cell viability to 50 %. Therapeutic index (TI) is a widely accepted parameter to represent the specificity of antibacterial agents for human (Begg et al., [1999]). In this study, the in vitro TI values were calculated as the ratio of CC50 (cytotoxic activity) and MIC (antibacterial activity); thus, greater values of in vitro therapeutic index indicate safer specificity for eukaryotic cells.
(§2) The data were analyzed using one-way ANOVA test followed by Dunnett’s test. Differences were considered as significant with p < 0.01 (GraphPad Prism 5, Version 5.04 Software). The values of CC50 and IC50 were calculated via 4-parameter nonlinear regression analyses using GraphPad Prism 5, version 5.04.

[1] = system: BJ (normal human skin fibroblasts); test: Cell proliferation MTT assay; conditions: 96 h; for IC50: Homo sapiens, Skin fibroblast, MTT, mean ± SD, read-out: IC50, antiproliferative activity, BJ
Description: as §1
(§3) In order to evaluate cell proliferation, the cells were seeded in flat-bottom 96-well plates in 100 μL of a complete growth medium at a concentration of 2 × 10^3 cells/well (BJ), 1.5 × 10^4 cells/well (HepG2) and 2.5 × 10^4 cells/well (MCF-7) and incubated for 24 h at 37 °C in a humidified atmosphere of 5 % CO2. Before drug exposure, the synthesized compounds (1–10) were dissolved in DMSO and then diluted in a complete culture medium supplemented with 10 % FBS. Subsequently, the growth medium was gently removed and the cells were exposed to 100 μL of serial dilutions of the investigated compounds at concentrations ranging from 0.05 to 200 μg/mL. Untreated cells were used as negative controls, and different concentrations of DMSO were used as the solvent control. After 96-h incubation at 37 °C in a humidified atmosphere of 5 % CO2, cell proliferation was assessed using the MTT test as described previously (Cytotoxicity assay). The MTT assay was repeated in three independent experiments in quadruplicates. The half-maximal inhibitory concentration (IC50) was defined as the compound concentration (μg/mL) required to inhibit cell proliferation to 50 %.
as §2, with “The results of the in vitro cell culture experiments were presented as mean values ± standard deviation (SD) or as mean values ± standard error of the mean (SEM). The data” for “The data”

[2] = system: HepG2 (human hepatocellular carcinoma); test: Cell proliferation MTT assay; conditions: 96 h; for IC50: Homo sapiens, HepG2, MTT, read-out: IC50, antiproliferative activity, HepG2
Description: as §1, §3
as §2, with “The results of the in vitro cell culture experiments were presented as mean values ± standard deviation (SD) or as mean values ± standard error of the mean (SEM). The data” for “The data”

[3] = system: pathogenic microaerobic bacteria (causing dental caries); test: Broth microdilution MIC, summary in text; conditions: range over compounds and strains; read-out: MIC against pathogenic microaerobic bacteria
Description: Panel reference strains of bacteria from the American Type Culture Collection or Polish Collection of Microorganisms, including aerobic Gram-positive bacteria: Staphylococcus aureus ATCC 25923 and Staphylococcus epidermidis ATCC 12228, and aerobic Gram-negative bacteria: Escherichia coli ATCC 25922 and Pseudomonas aeruginosa ATCC 9027, as well as microaerobic Gram-positive bacteria: Lactobacillus spp., Lactobacillus acidophilus PCM 2105, Streptococcus mutans PCM 2502 and Streptococcus sanguinis PCM 2335, were used. Microbial suspensions with an optical density of 0.5 McFarland standard at 1.5 × 10^8 CFU/mL (CFU: colony forming unit) were prepared in sterile 0.9 % NaCl. Mueller–Hinton (M–H) broth and M–H agar (Oxoid Ltd., England) for aerobic strains, and MRS Broth Lactobacillus, MRS Agar Lactobacillus (BioMaxima S.A., Poland), BHI Broth and BHI agar (BioMaxima S.A., Poland) for microaerobic strains were used in the microbial tests.
A broth microdilution method was used to evaluate the minimum inhibition concentration (MIC) according to the CLSI document (CLSI performance standards for antimicrobial susceptibility testing, 2008, Eighteenth International Supplement, CLSI document M7-MIC, Clinical Laboratory Standards Institute, Wayne) with some modifications. […] A serial doubling dilution of the compounds was prepared in 96-well plates (200 μL per well). A suitable medium (M-H Broth, MRS Broth Lactobacillus, BHI Broth) was used as a diluent. The final concentrations of derivatives were 1000–0.015 μg/mL. Finally, 2 μL of inoculum of the tested bacterial strain (1.5 × 10^8 CFU/mL) was added to each well. The tests were performed either at 36 °C for 18 h (aerobic strains) or at 40 h (microaerobic strains). After incubation, the panel was digitally analyzed at 600 nm using the microplate reader Bio Tech Synergy (USA) with a dedicated software system. The growth intensity in each well was compared with the negative and positive controls.

[4] = 10 μg/mL, proliferation reduced to

IC50 ([2]; mean ± SD) [mg/L]	MIC [3] [mg/L]	SMILES	CC50 at 24 h (Cytotoxicity MTT assay) [mg/L]	IC50 [1] [mg/L]	further results
		CCOc1ccc2nc3cc(N)ccc3c(N)c2c1 [Ethacridine lactate, ethacridine lactate, reference compound]	6.88		
		[H]/N=C(\N/C(=N/[H])NCCCCCCNC(=N)NC(=N)Nc1ccc(Cl)cc1)Nc1ccc(Cl)cc1 [CLX, chlorhexidine digluconate, reference compound]	8.46		
		CSc1ccc(NC(=S)NNC(=O)c2cccnc2)cc1 [Compound 6, 4-(4-Methylthiophenyl)-1-(pyridin-3-yl)carbonylthiosemicarbazide]	917 (≈ 2880 µM)		
		O=C(NNC(=S)Nc1ccc(Cl)cc1Cl)c1cccnc1 [Compound 7, 4-(2,4-Dichlorophenyl)-1-(pyridin-3-yl)carbonylthiosemicarbazide]	88.3 (≈ 259 µM)		
2.71 ± 0.23	7.81 to 500	O=C(NNC(=S)Nc1ccccc1Cl)c1ccccn1 [Compound 2, 4-(2-Chlorophenyl)-1-(pyridin-2-yl)carbonylthiosemicarbazide]		3.06 ± 0.46 (≈ 9.97 µM)	cell proliferation compared to the control, BJ [1, 4]: 32%; cell proliferation compared to the control, HepG2 [2, 4]: 18.9%
2.09	7.81 to 500	O=C(NNC(=S)Nc1ccc(Cl)cc1Cl)c1ccccn1 [Compound 4, 4-(2,4-Dichlorophenyl)-1-(pyridin-2-yl)carbonylthiosemicarbazide]	19.5 (≈ 57.1 µM)	1.86 ± 0.44 (≈ 5.45 µM)	IC50 ([2]; same value in µM): 6.12 µM
